7 molecules from ChEMBL document CHEMBL1141953, “Synthesis and structure-activity relationships of novel benzene sulfonamides with potent binding affinity for bovine carbonic anhydrase II” (Bioorg Med Chem Lett, 2005) can be followed below.

The target of the experiment is Carbonic anhydrase 2 (Bos taurus, UniProt P00921). The experiment in a line: Displacement of DNSA from CAII in bovine erythrocytes.
Chain of Carbonic anhydrase 2 (P00921 whole entry): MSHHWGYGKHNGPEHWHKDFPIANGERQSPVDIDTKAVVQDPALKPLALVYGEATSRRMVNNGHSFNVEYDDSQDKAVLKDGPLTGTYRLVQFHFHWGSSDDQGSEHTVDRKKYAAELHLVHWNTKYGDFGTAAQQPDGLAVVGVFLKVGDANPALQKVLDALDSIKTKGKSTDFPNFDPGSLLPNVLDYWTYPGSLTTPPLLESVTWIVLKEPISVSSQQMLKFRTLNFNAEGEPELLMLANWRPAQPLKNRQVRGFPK

`NS(=O)(=O)c1ccc(C(=O)OC/C=C/CO)cc1` had a Ki of 5.3 nM. Next, `NS(=O)(=O)c1ccc(C(=O)OC/C=C\COC(=O)c2ccc(S(N)(=O)=O)cc2)cc1`: 9.3 nM; `NS(=O)(=O)c1ccc(C(=O)OC/C=C\CO)cc1`: 9.1 nM.

In the case of `NS(=O)(=O)c1ccc(C(=O)OC/C=C/COC(=O)c2ccccc2)cc1`, the Ki turned out to be 4.7 nM. Next, `NS(=O)(=O)c1ccc(C(=O)OC/C=C/COC(=O)c2ccc(S(N)(=O)=O)cc2)cc1`: 4.9 nM.

`C=CCCCOC(=O)c1ccc(S(N)(=O)=O)cc1` gave a Ki of 7.7 nM.

Take `C=CCOC(=O)c1ccc(S(N)(=O)=O)cc1`: the inhibitory constant (Ki) was 8.6 nM.

In general, Ki refers to a measure of affinity in units of concentration, obtained from inhibition or displacement.
